# Values quoted from earlier work as cited in patent US8460687B1, “Peeling compositions” (Cosmoceutical Research Center, priority 2009, dated 2013).
# Like-named read-outs stand apart in the source and are kept apart here.
smiles,measurement,setting,value
"O=P(O)(O)O[C@H]1[C@H](OP(=O)(O)O)[C@@H](OP(=O)(O)O)[C@H](OP(=O)(O)O)[C@@H](OP(=O)(O)O)[C@H]1OP(=O)(O)O [Phytic acid, inisitol hexakisphosphate]",pH of aqueous solution,0.66 g/l,2.68
same,pH of aqueous solution,66 g/l,0.9
